According to patent publication US20180110754A1, “CENICRIVIROC FOR THE TREATMENT OF FIBROSIS” (Tobira Therapeutics, Inc., priority 2015, published 2018):

How the values were obtained:
Assay type in all cases: in vivo, human
APRI and FIB-4 scores = experiment: Study 202 post-hoc APRI and FIB-4 fibrosis index scores
Method: APRI and FIB-4 scores were calculated. Change in score category from baseline (BL) to Weeks 24 and 48 was assessed in patients with non-missing data. Correlations between changes from BL in APRI and FIB-4 scores, and MCP-1 (CCR2 ligand) and sCD14 (inflammatory biomarker) levels were evaluated.

HIV-1 = experiment: Study 202 Phase 2b: virologic response (HIV-1 RNA <50 copies/mL, FDA Snapshot); conditions: EFV + FTC/TDF
Excerpt: Subjects with a history of HIV-2, hepatitis B and/or C, cirrhosis of the liver or any known active or chronic active liver disease were excluded from the study.
The primary efficacy endpoint was virologic response at Week 24, defined as HIV-1 RNA<50 copies/mL using the FDA Snapshot Algorithm.

[1] = system: MCP-1, sCD14, hs-CRP, IL-6, D-dimer, fibrinogen; experiment: Study 202: biomarkers of inflammation and immune function; conditions: EFV 600 mg
Method: As an exploratory analysis, levels of inflammation biomarkers MCP-1, sCD14, high sensitivity C-reactive protein [hs-CRP], interleukin-6 [IL-6], D-dimer, and fibrinogen) were measured. Baseline values and changes from baseline at Week 24 and Week 48 of MCP-1, sCD14, hs-CRP, IL-6, D-dimer, and fibrinogen are summarized in Table 25.
The sCD14 samples were originally analyzed in 2 separate batches: Batch 1 included samples leading up to the Week 24 primary analysis and Batch 2 included Week 32 and Week 48 (end of study) samples. A repeat analysis of archived samples all analyzed in one batch was conducted for consistency in analysis across time points. To control for the effects of covariates, a linear mixed-model repeated-measures analysis was conducted on the changes from baseline in sCD14 (analysis dated September 2013).

[2] = Study 202: ECG abnormalities and vital signs; conditions: All CVC (N = 115); EFV (N = 28), through Week 48

O=C1Nc2ccc(Cl)cc2[C@@](C#CC2CC2)(C(F)(F)F)O1 [EFV, efavirenz, reference compound]
Patients in APRI category 0.5-1.5 (APRI and FIB-4 scores; Baseline): 4%
Patients in FIB-4 category <1.45 (APRI and FIB-4 scores; Baseline): 100%
Patients in APRI category <0.5 (APRI and FIB-4 scores; Baseline, CVC pooled 100/200 mg or EFV): 96%
Patients in APRI category <0.5 (APRI and FIB-4 scores; Week 24): 100%
Patients in FIB-4 category <1.45 (APRI and FIB-4 scores; Week 24): 100%
Patients with APRI decreased 1 category from baseline (APRI and FIB-4 scores; Week 24): 5%
Patients in APRI category <0.5 (APRI and FIB-4 scores; Week 48): 100%
Patients in FIB-4 category 1.45-3.25 (APRI and FIB-4 scores; Week 48): 6%
Patients in FIB-4 category <1.45 (APRI and FIB-4 scores; Week 48): 94%
Patients with APRI decreased 1 category from baseline (APRI and FIB-4 scores; Week 48): 6%
Virologic success (HIV-1 RNA <50 copies/mL) (HIV-1; Week 24): 71%
Virologic success (HIV-1 RNA <50 copies/mL) (HIV-1; Week 48): 50%
D-dimer baseline value, mean [1]: 163 ng/mL
D-dimer baseline value, median [1]: 150 ng/mL
D-dimer change from baseline at Week 24, mean [1]: -53 ng/mL
D-dimer change from baseline at Week 24, median [1]: -26 ng/mL
D-dimer change from baseline at Week 48, mean [1]: -34 ng/mL
D-dimer change from baseline at Week 48, median [1]: 0.0 ng/mL
Fibrinogen baseline value, mean [1]: 258 mg/dL
Fibrinogen baseline value, median [1]: 245 mg/dL
Fibrinogen change from baseline at Week 24, mean [1]: -28 mg/dL
Fibrinogen change from baseline at Week 24, median [1]: -31 mg/dL
Fibrinogen change from baseline at Week 48, mean [1]: -30 mg/dL
Fibrinogen change from baseline at Week 48, median [1]: -22 mg/dL
IL-6 baseline value, mean [1]: 13.81 pg/mL
IL-6 baseline value, median [1]: 1.90 pg/mL
IL-6 change from baseline at Week 24, mean [1]: -8.72 pg/mL
IL-6 change from baseline at Week 24, median [1]: 0.00 pg/mL
IL-6 change from baseline at Week 48, mean [1]: -13.11 pg/mL
IL-6 change from baseline at Week 48, median [1]: 0.00 pg/mL
MCP-1 baseline value, mean [1]: 139 pg/mL
MCP-1 baseline value, median [1]: 122 pg/mL
MCP-1 change from baseline at Week 24, mean [1]: -44 pg/mL
MCP-1 change from baseline at Week 24, median [1]: -17 pg/mL
MCP-1 change from baseline at Week 48, mean [1]: 4.2 pg/mL
MCP-1 change from baseline at Week 48, median [1]: 33.6 pg/mL
hs-CRP baseline value, mean [1]: 0.81 mg/dL
hs-CRP baseline value, median [1]: 0.14 mg/dL
hs-CRP change from baseline at Week 24, mean [1]: -0.46 mg/dL
hs-CRP change from baseline at Week 24, median [1]: -0.01 mg/dL
hs-CRP change from baseline at Week 48, mean [1]: -0.71 mg/dL
hs-CRP change from baseline at Week 48, median [1]: -0.03 mg/dL
sCD14 (original values) baseline value, mean [1]: 2e+06 pg/mL
sCD14 (original values) baseline value, median [1]: 2.02e+06 pg/mL
sCD14 (original values) change from baseline at Week 12, mean [1]: 90000 pg/mL
sCD14 (original values) change from baseline at Week 12, median [1]: 180000 pg/mL
sCD14 (original values) change from baseline at Week 24, mean [1]: 230000 pg/mL
sCD14 (original values) change from baseline at Week 24, median [1]: 130000 pg/mL
sCD14 (original values) change from baseline at Week 32, mean [1]: 480000 pg/mL
sCD14 (original values) change from baseline at Week 32, median [1]: 170000 pg/mL
sCD14 (original values) change from baseline at Week 48, mean [1]: 640000 pg/mL
sCD14 (original values) change from baseline at Week 48, median [1]: 460000 pg/mL
HR Abnormally high, n subjects [2]: 0
HR Abnormally low, n subjects [2]: 0
PR Abnormally high, n subjects [2]: 1
QRS Abnormally high, n subjects [2]: 0
QRS Abnormally low, n subjects [2]: 0
QTcB interval Borderline (450-480 ms), n subjects [2]: 3
QTcB interval Increase by >30-60 ms, n subjects [2]: 4
QTcB interval Increase by >60 ms, n subjects [2]: 0
QTcB interval Pathologically prolonged, n subjects [2]: 0
QTcB interval Prolonged, n subjects [2]: 0
QTcF interval Borderline (450-480 ms), n subjects [2]: 0
QTcF interval Increase by >30-60 ms, n subjects [2]: 4
QTcF interval Increase by >60 ms, n subjects [2]: 0
QTcF interval Pathologically prolonged, n subjects [2]: 0
QTcF interval Prolonged, n subjects [2]: 0
